Here are results for 2 compounds from US10792248B2, “Aqueous suspension preparation comprising nanoparticles of macrolide antibacterial agent” (ACTIVUS PHARMA CO., LTD., priority 2013, dated 2020).

≈ marks a conversion by molar mass, not a printed value. Where two headings read alike, the source gives them in different places. Some results are limits rather than exact numbers.

For data set [1] the following is noted: rabbit, in vivo; cited from earlier work.
A short description of data set [2]: Stability test of nanoized clarithromycin suspension formulation, residual ratio by HPLC (Example 10). In kind it is physicochemical. Conditions: 5° C., 25° C. and 40° C., 14 days. How it is done:
A quantity of 6 to 8 g of the nanoized clarithromycin suspension formulations (clarithromycin concentrations 0.3% and 1.0%) produced in Example 7 (1) were weighed in a 9 mL-screw vial, allowed to stand in thermo-hygrostats each set at 5° C., 25° C., and 40° C. to carry out the stability test over a period of 14 days. On days 7 and 14, the clarithromycin concentrations were determined by high performance liquid chromatography (HPLC), and the residual ratio was determined as compared to the clarithromycin concentration immediately after the formulation which was taken as 100% to evaluate the stability. The HPLC analysis conditions were as follows.
Apparatus: Waters alliance
Column: Inertsil ODS 4.6 mm×150 mm
Column temperature: 50° C.
Detection wavelength: 210 nm

The conditions of data set [3]: formulation with effective average diameter of less than 2000 nm combined with a surface stabilizer (Patent Literature 4); cited from earlier work.
For data set [4] the following is noted: cited from earlier work.
Data set [5] relates to nontuberculous mycobacteria. Conditions: cited from earlier work.
The next data set relates to Pseudomonas aeruginosa. The data set is described as follows: Minimum inhibitory concentration (MIC) test, broth microdilution method. Format: cell-based. Conditions: 35±1° C., 18 to 24 hours, replicates. How it is done: (§1) An MIC test was conducted by applying the minimum inhibitory concentration (MIC) measurement method by the broth microdilution method (the standard method of Japanese Society of Chemotherapy). The clarithromycin suspension prepared in Example 6 (1) (test substance 1) was used as a test substance. An unpulverized clarithromycin suspension (test substance 2) and a clarithromycin solution in DMSO (test substance 3) were used as controls for comparisons.
(§2) Each of the test substances was stirred for 15 seconds or more using a vortex mixer before dilution. The clarithromycin-containing samples (test substances 1 to 3) were diluted with Mueller Hinton II broth to be a concentration of 250 μg/mL, and then two-fold diluted serially to prepare mediums containing the each sample at a final drug concentration of 0.012 to 25 μg/mL, which were used for inoculation of Staphylococcus aureus subsp. aureus. Similarly, the samples were diluted with Mueller Hinton II broth to a concentration of 1000 μg/mL, and then two-fold diluted serially to prepare mediums containing the each sample at a final drug concentration of 0.049 to 100 μg/mL, which were used for inoculating Pseudomonas aeruginosa.
(§3) To a U-shaped well microplate, 0.1±0.02 mL per well of the each prepared test substance-containing medium was dispensed. Drug-free medium was dispensed into two wells as a control.
(§4) Staphylococcus aureus subsp. aureus or Pseudomonas aeruginosa was cultured overnight in Mueller Hinton II agar medium. The fresh cultured bacterium on the agar plate was suspended in equivalent to 0.5 McFarand (about 10^8 CFU/mL) with sterilized saline and further diluted tenfold (about 10^7 CFU/mL) with sterilized saline to prepare a bacterium liquid.
(§5) To each of the wells to which the test substance-containing medium or the test substance-free medium was dispensed, 0.005 mL of the bacterium liquid of Staphylococcus aureus subsp. aureus or Pseudomonas aeruginosa prepared in the above (2-2) was inoculated (final amount of bacterium liquid: about 10^4 CFU/well). The bacterium liquid was not inoculated to a part of the wells with the test substance-free medium to prepare negative control wells. After inoculation, the media were cultured at 35±1° C. for 18 to 24 hours.
(§6) After confirming growth in the control wells containing the test substance-free media, the minimum inhibitory concentration (MIC) was determined as the minimum drug concentration in which the growth of bacterium was not detected with the naked eye. […] When turbidity or a precipitation was not observed with the naked eye, or when only one precipitation with the diameter of 1 mm or less was observed, the growth was determined negative (−).

Data set [6] concerns Staphylococcus aureus subsp. aureus. Described as above. Format: cell-based. Conditions: 35±1° C., 18 to 24 hours, replicates. How it is done: as §1, §2, §3, §4, §5, §6

On to `CC[C@H]1OC(=O)[C@H](C)[C@@H](O[C@H]2C[C@@](C)(OC)[C@@H](O)[C@H](C)O2)[C@H](C)[C@@H](O[C@@H]2O[C@H](C)C[C@H](N(C)C)[C@H]2O)[C@](C)(OC)C[C@@H](C)C(=O)[C@H](C)[C@@H](O)[C@]1(C)O` [clarithromycin], for which the “retention in the cornea” value in data set [1] is reported as “retained in the cornea”. Besides, the “stability (decomposition) in the suspension formulations” value in data set [2] is reported as “not decomposed but stable”. In data set [3], the oral bioavailability entry is on record as “higher oral bioavailability”. For the same compound, the solubility in acetone result in data set [4] (acetone) is given as “slightly soluble”. Also, the solubility in chloroform entry in data set [4] (chloroform) is listed as “slightly soluble”. The solubility in ethanol entry in data set [4] (ethanol) is recorded as “very slightly soluble”. Moreover, the solubility in ether entry in data set [4] (ether) is “very slightly soluble”. The solubility entry in data set [4] (formulation with effective average diameter of less than 2000 nm combined with a surface stabilizer (Patent Literature 4)) is on record as “higher solubility”; in data set [4] (pulverized with L-ascorbic-acid 2-glycoside (Non Patent Literature 1)), “enhanced solubility”. Also, the solubility in methanol result in data set [4] (methanol) is “very slightly soluble”. Also, in data set [4] (water), the solubility in water result is “practically insoluble”. In addition, the “effectiveness against nontuberculous mycobacteria relative to azithromycin” value in data set [5] is on record as “four to eight times as effective as azithromycin”.

Consider `CC[C@H]1OC(=O)[C@H](C)[C@@H](O[C@H]2C[C@@](C)(OC)[C@@H](O)[C@H](C)O2)[C@H](C)[C@@H](O[C@@H]2O[C@H](C)C[C@H](N(C)C)[C@H]2O)[C@](C)(OC)C[C@@H](C)C(=O)[C@H](C)[C@@H](O)[C@]1(C)O` [Clarithromycin solution in DMSO, clarithromycin], for which the figures for the MIC (in the data set with Pseudomonas aeruginosa; in data set [6]) were above 100 µg/mL and 0.391 µg/mL (≈ 0.523 µM), respectively. Besides, the Minimum inhibitory concentration with Pseudomonas aeruginosa is above 100 µg/mL; in data set [6], 0.391 µg/mL (≈ 0.523 µM).
